{
  "source": "patent US10040804B2",
  "about": "“Compounds targeting proteins, compositions, methods, and uses thereof” (BioTheryX, Inc., priority 2016, dated 2018)",
  "key": {"IL-1β": {"system": "IL-1β", "assay": "IL-1β expression in LPS stimulated PBMCs (Meso Scale)", "type": "cell-based, human", "settings": "Homo sapiens, PBMC; for inhibition at 10 µM: compound concentration 10 μM", "how_it_was_run": "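Human PBMCs (200,000 cells/well in RPMI-1640/10% FBS) were pretreated with compound for 1 h, then stimulated with 100 ng/mL LPS for 18-24 h. IL-1β in supernatant was measured by Meso Scale assay. Activity is expressed as percentage of LPS-induced level, with DMSO-treated wells as negative control.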"}, "Molm-13 cells": {"system": "Molm-13 cells", "assay": "Molm-13 cell viability (CellTiter-Glo)", "type": "cell-based", "settings": "Homo sapiens, MOLM-13, read-out: % Inhibition (MOLM-13 Cell Viability); for cytotoxicity at 10 µM: compound concentration 10 μM", "how_it_was_run": "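Molm-13 (RPMI-1640, 10% FBS) and H1048 (DMEM:F12, 5% FBS with supplements) plated at 20,000 cells/well, treated with compound or 0.1% DMSO for 3 days at 37° C., 5% CO2. Viability read by CellTiter-Glo luminescence after 10 min.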"}, "IL-2": {"system": "IL-2", "assay": "anti-CD3-induced IL-2 secretion in PBMCs", "type": "cell-based", "settings": "Homo sapiens, PBMC, anti-CD3 stimulated PBMCs, 24 h, DMSO = 1.0, read-out: Fold Change IL-2; for fold induction at 10 µM: compound concentration 10 μM", "procedure": "FIGS. 4 and 9D are graphs showing anti-CD3-induced IL-2 secretion in PBMCs. 1 ug/mL anti-CD3 (OKT-3) antibody in PBS were coated onto 96-well plates overnight at 4° C. Approximately 550,000 PBMCs were added to each well, followed by addition of DMSO only, Compound 1-8 at 10 μM (FIG. 4) or Compound 9 at 0.1 μM or 1 μM (FIG. 9D), or 10 μM lenalidomide (rev). Induction was measured after 24 h as fold difference from the DMSO stimulated control.\nFor the IL-2 analysis, 96 well plates were precoated with 1 ug/mL anti-human CD3 antibody (OKT3, eBioscience Inc.). After washing with PBS, compounds were added to the wells (50 μL/well) followed by PBMCs diluted at 3-4 million cells/mL (150 μL/well). Plates were incubated for 24 h and the supernatants collected for Mesoscale IL-2 analysis.\nCompound activity was measured as fold difference from the DMSO control. IL-1-beta activity is shown in FIG. 1; IL-6 activity is shown in FIG. 2; TNF-α activity is shown in FIG. 3; and IL-2 activity is shown in FIG. 4."}, "IL-6": {"system": "IL-6", "assay": "IL-6 expression in LPS stimulated PBMCs (Meso Scale)", "type": "cell-based, human", "settings": "Homo sapiens, PBMC, LPS-stimulated PBMCs; for inhibition at 10 µM: compound concentration 10 μM", "how_it_was_run": "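Thawed human PBMCs at 200,000 cells/well in RPMI-1640/10% FBS were pretreated with compound or DMSO for 1 h, then stimulated with 100 ng/mL LPS for 18–24 h. Supernatant IL-6 was measured by Meso Scale assay and expressed as % of LPS-induced activity.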"}, "TNF-α": {"system": "TNF-α", "assay": "TNF-α expression in LPS stimulated PBMCs (Meso Scale)", "type": "cell-based, human", "settings": "Homo sapiens, PBMC; for inhibition at 10 µM: compound concentration 10 μM", "how_it_was_run": "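Thawed primary human PBMCs, 200,000 cells/well in RPMI-1640/10% FBS, pretreated with compound 1 h, then stimulated with 100 ng/mL LPS for 18-24 h. Supernatant TNF-α measured by Meso Scale assay; activity expressed as percentage of LPS-induced level, DMSO as negative control.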"}},
  "data": [
    {"molecule": "O=C1CCC[C@H](N2Cc3sccc3C2=O)C(=O)N1", "note": "[Compound 2, (S)-3-(4-oxo-4,6-dihydro-5H-thieno[2,3-c]pyrrol-5-yl)azepane-2,7-dione]", "values": [
      {"measurement": "inhibition at 5 µM", "setting": "IL-1β; compound concentration 5 μM", "result": 88, "unit": "%"},
      {"measurement": "cytotoxicity at 10 µM", "setting": "Molm-13 cells", "result": 32, "unit": "%"},
      {"measurement": "fold induction at 5 µM", "setting": "IL-2; compound concentration 5 μM", "result": 1.9},
      {"measurement": "inhibition at 5 µM", "setting": "IL-6; compound concentration 5 μM", "result": 31, "unit": "%"},
      {"measurement": "inhibition at 5 µM", "setting": "TNF-α; compound concentration 5 μM", "result": 65, "unit": "%"}
    ]},
    {"molecule": "Cc1sc2c(c1C)C(c1ccc(Cl)cc1)=N[C@@H](CC(=O)NCCCCNCC(=O)NCc1scc3c1CN(C1CCC(=O)NC1=O)C3=O)c1nnc(C)n1-2", "note": "(stereo partly drawn) [Compound 60, 2-((S)-4-(4-Chlorophenyl)-2,3,9-trimethyl-6H-thieno[3,2-f][1,2,4]triazolo[4,3-a][1,4]diazepin-6-yl)-N-(4-((2-(((5-(2,6-dioxopiperidin-3-yl)-4-oxo-5,6-dihydro-4H-thieno[3,4-c]pyrrol-1-yl)methyl)amino)-2-oxoethyl)amino)butyl)acetamide]", "values": [
      {"measurement": "inhibition at 1 µM", "setting": "IL-1β; compound concentration 1 μM", "result": 91, "unit": "%"},
      {"measurement": "cytotoxicity at 0.2 µM", "setting": "Molm-13 cells; compound concentration 0.2 μM", "result": 50, "unit": "%"},
      {"measurement": "fold induction at 1 µM", "setting": "IL-2; compound concentration 1 μM", "result": 0.2},
      {"measurement": "inhibition at 1 µM", "setting": "IL-6; compound concentration 1 μM", "result": 95, "unit": "%"},
      {"measurement": "inhibition at 1 µM", "setting": "TNF-α; compound concentration 1 μM", "result": 93, "unit": "%"}
    ]},
    {"molecule": "Cc1cnc(Nc2ccc(OCCCNC(=O)NCc3scc4c3CN([C@H]3CCCC(=O)NC3=O)C4=O)cc2)nc1Nc1cccc(S(=O)(=O)NC(C)(C)C)c1", "note": "[Compound 61, (S)—N-(tert-Butyl)-3-((2-((4-(3-(3-((5-(2,7-dioxoazepan-3-yl)-4-oxo-5,6-dihydro-4H-thieno[3,4-c]pyrrol-1-yl)methyl)ureido)propoxy)phenyl)amino)-5-methylpyrimidin-4-yl)amino)benzenesulfonamide]", "values": [
      {"measurement": "inhibition at 10 µM", "setting": "IL-1β", "result": 53, "unit": "%"},
      {"measurement": "cytotoxicity at 2.8 µM", "setting": "Molm-13 cells; compound concentration 2.8 μM", "result": 50, "unit": "%"},
      {"measurement": "fold induction at 10 µM", "setting": "IL-2", "result": 0.8},
      {"measurement": "inhibition at 10 µM", "setting": "IL-6", "result": 11, "unit": "%"},
      {"measurement": "inhibition at 10 µM", "setting": "TNF-α", "result": 66, "unit": "%"}
    ]},
    {"molecule": "O=C1CCC(N2C(=O)c3cc(C4CCCC4)sc3C2=O)C(=O)N1", "note": "(centres unmarked) [Compound 26, 2-Cyclopentyl-5-(2,6-dioxopiperidin-3-yl)-4H-thieno[2,3-c]pyrrole-4,6(5H)-dione]", "values": [
      {"measurement": "inhibition at 10 µM", "setting": "IL-1β", "result": 2, "unit": "%"},
      {"measurement": "cytotoxicity at 10 µM", "setting": "Molm-13 cells", "result": 0, "unit": "%"},
      {"measurement": "fold induction at 10 µM", "setting": "IL-2", "result": 0.9},
      {"measurement": "inhibition at 10 µM", "setting": "IL-6", "result": 14, "unit": "%"},
      {"measurement": "inhibition at 10 µM", "setting": "TNF-α", "result": 31, "unit": "%"}
    ]},
    {"molecule": "O=C1CCC[C@H](N2Cc3sc(Br)cc3C2=O)C(=O)N1", "note": "[Compound 14, (S)-3-(2-Bromo-4-oxo-4,6-dihydro-5H-thieno[2,3-c]pyrrol-5-yl)azepane-2,7-dione]", "values": [
      {"measurement": "inhibition at 10 µM", "setting": "IL-1β", "result": 88, "unit": "%"},
      {"measurement": "cytotoxicity at 10 µM", "setting": "Molm-13 cells", "result": 0, "unit": "%"},
      {"measurement": "fold induction at 10 µM", "setting": "IL-2", "result": 1.5},
      {"measurement": "inhibition at 10 µM", "setting": "IL-6", "result": 65, "unit": "%"},
      {"measurement": "inhibition at 10 µM", "setting": "TNF-α", "result": 85, "unit": "%"}
    ]},
    {"molecule": "O=C1NCCCC[C@@H]1N1Cc2sccc2C1=O", "note": "[Compound 4, (S)-5-(2-oxoazepan-3-yl)-5,6-dihydro-4H-thieno[2,3-c]pyrrol-4-one]", "values": [
      {"measurement": "inhibition at 10 µM", "setting": "IL-1β", "result": 0, "unit": "%"},
      {"measurement": "cytotoxicity at 10 µM", "setting": "Molm-13 cells", "result": 0, "unit": "%"},
      {"measurement": "fold induction at 10 µM", "setting": "IL-2", "result": 0.7},
      {"measurement": "inhibition at 10 µM", "setting": "IL-6", "result": 0, "unit": "%"},
      {"measurement": "inhibition at 10 µM", "setting": "TNF-α", "result": 0, "unit": "%"}
    ]},
    {"molecule": "O=C1CCC(N2C(=O)c3scc(C4CCCC4)c3C2=O)C(=O)N1", "note": "(centres unmarked) [Compound 22, 3-Cyclopentyl-5-(2,6-dioxopiperidin-3-yl)-4H-thieno[2,3-c]pyrrole-4,6(5H)-dione]", "values": [
      {"measurement": "inhibition at 10 µM", "setting": "IL-1β", "result": 0, "unit": "%"},
      {"measurement": "cytotoxicity at 10 µM", "setting": "Molm-13 cells", "result": 23, "unit": "%"},
      {"measurement": "fold induction at 10 µM", "setting": "IL-2", "result": 0.8},
      {"measurement": "inhibition at 10 µM", "setting": "IL-6", "result": 16, "unit": "%"},
      {"measurement": "inhibition at 10 µM", "setting": "TNF-α", "result": 26, "unit": "%"}
    ]},
    {"molecule": "O=C1CCC[C@H](N2Cc3c(csc3C(F)F)C2=O)C(=O)N1", "note": "[Compound 19, (S)-3-(1-(Difluoromethyl)-4-oxo-4H-thieno[3,4-c]pyrrol-5(6H)-yl)azepane-2,7-dione]", "values": [
      {"measurement": "inhibition at 10 µM", "setting": "IL-1β", "result": 79, "unit": "%"},
      {"measurement": "cytotoxicity at 10 µM", "setting": "Molm-13 cells", "result": 29, "unit": "%"},
      {"measurement": "fold induction at 10 µM", "setting": "IL-2", "result": 4},
      {"measurement": "inhibition at 10 µM", "setting": "IL-6", "result": 78, "unit": "%"},
      {"measurement": "inhibition at 10 µM", "setting": "TNF-α", "result": 59, "unit": "%"}
    ]},
    {"molecule": "O=C1CCC(N2C(=O)c3csc(C4CCCC4)c3C2=O)C(=O)N1", "note": "(centres unmarked) [Compound 27, 1-Cyclopentyl-5-(2,6-dioxopiperidin-3-yl)-4H-thieno[3,4-c]pyrrole-4,6(5H)-dione]", "values": [
      {"measurement": "inhibition at 10 µM", "setting": "IL-1β", "result": 21, "unit": "%"},
      {"measurement": "cytotoxicity at 10 µM", "setting": "Molm-13 cells", "result": 0, "unit": "%"},
      {"measurement": "fold induction at 10 µM", "setting": "IL-2", "result": 0.8},
      {"measurement": "inhibition at 10 µM", "setting": "IL-6", "result": 3, "unit": "%"},
      {"measurement": "inhibition at 10 µM", "setting": "TNF-α", "result": 22, "unit": "%"}
    ]},
    {"molecule": "Cc1scc2c1CN([C@H]1CCCC(=O)NC1=O)C2=O", "note": "[Compound 8, (S)-3-(1-methyl-4-oxo-4H-thieno[3,4-c]pyrrol-5(6H)-yl)azepane-2,7-dione]", "values": [
      {"measurement": "inhibition at 10 µM", "setting": "IL-1β", "result": 80, "unit": "%"},
      {"measurement": "cytotoxicity at 10 µM", "setting": "Molm-13 cells", "result": 42, "unit": "%"},
      {"measurement": "fold induction at 10 µM", "setting": "IL-2", "result": 1},
      {"measurement": "inhibition at 10 µM", "setting": "IL-6", "result": 71, "unit": "%"},
      {"measurement": "inhibition at 10 µM", "setting": "TNF-α", "result": 71, "unit": "%"}
    ]}
  ]
}
